The results in this text go back to the supplement of paper PMC4862054.

Common to all, as to conditions: incubation time: 72 h
Assay [1] deals with BT-549. The assay can be described thus: drug sensitivity score (DSS), CellTox Green (DSS (AUC-based score)); higher = stronger drug effect (viability inhibition or cytotoxicity); extreme values may be limits of the assay. Put shortly:
(§1)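 After 72 h of incubation in 384-well plates with compound at 5 concentrations (10-fold steps, 10,000-fold range set per compound), breast cancer cell lines seeded in 20 µl suspension were read first for CellTox Green fluorescence at 485/520 nm. CellTiter-Glo luminescence was measured next, after 10 min at room temperature. Normalisation on each plate used 0.1 % DMSO and a positive kill control, and the drug sensitivity score was computed from the area under the fitted dose-response curve.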

Assay [2] relates to MDA-MB-453. The assay is described as above. The method in brief: as §1
A further assay relates to HCC1599. The assay is described as above. The method in brief:
as §1

For a further assay, the system named is MDA-MB-436. Described as above. Put shortly: as §1
For another assay, the system named is CAL-120. The description is as above. The method in brief:
as §1

The test system of another assay is MCF-10A. The assay is described as above. Put shortly:
as §1

The test system of assay [3] is HCC1937. The description is as above. Put shortly: as §1
The test system of another assay is CAL-148. The assay is described as above. The method in brief:
as §1

In a further assay the test system is HDQ-P1. Described as above. The method in brief:
as §1

A further assay relates to HCC1143. The assay is described as above. Put shortly: as §1
The next assay has as its system MDA-MB-468. Described as above. The method in brief: as §1
A further assay deals with MDA-MB-231. Described as above. The method in brief:
as §1

In assay [4] the test system is CAL-51. The assay is described as above. The method in brief: as §1
The subject of assay [5] is BT-474. The description is as above. The method in brief: as §1
Assay [6] deals with DU-4475. The description is as above. Put shortly:
as §1

The next assay deals with MFM-223. Described as above. The method in brief: as §1
In a further assay the test system is CAL-85-1. The description is as above. The method in brief:
as §1

Assay [7] relates to BT-549. The assay can be described thus: normalised viability (% of control), CellTiter-Blue; higher = more viable cells (about 100 = DMSO control). The method in brief: (§2)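 Plates were quality-checked by Z'-factor and normalised to vehicle (100) and a positive kill control (0). The underlying assay incubated breast cancer cell lines for 72 h on 384-well plates with compound, then added 2.5 µl CellTiter-Blue for 2 h at 37 °C and read at 560/590 nm. The value is normalised viability at a single listed concentration of the series.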
(Resazurin is reduced to fluorescent resorufin, in cell work by metabolically active cells.)

Assay [8] deals with MDA-MB-453. The description is as above. The method in brief: as §2
Assay [9] concerns HCC1937. Described as above. Put shortly: as §2
Assay [10] relates to CAL-51. Described as above. The method in brief:
as §2

Assay [11] has as its system BT-474. The assay is described as above. Put shortly:
as §2

The test system of assay [12] is DU-4475. Described as above. Put shortly:
as §2

The test system of the next assay is Hs578T. Put plainly: drug sensitivity score (DSS), CellTox Green (DSS (AUC-based score)); higher = stronger drug effect (viability inhibition or cytotoxicity); extreme values may be limits of the assay. Put shortly: as §1

`Cn1c(=O)c(F)c(Nc2ccc(I)cc2F)c2c(=O)n(C[C@@H](O)CO)cnc21` [TAK-733]: the drug sensitivity score stood at 0 in the assay on BT-549 [1]; 0 in the assay on MDA-MB-453 [2]; 0 in the assay on HCC1599; 0 in the assay on MDA-MB-436; 0.284 in the assay on CAL-120; 0 in the assay with MCF-10A. Moreover, the drug sensitivity score was 0 with HCC1937 [3]; 0 in the assay on CAL-148; 0 in the assay on HDQ-P1; 0 with HCC1143; 0 in the assay on MDA-MB-468; 5.12 in the assay with MDA-MB-231. In addition, the drug sensitivity score in the assay on CAL-51 [4] is 0; in the assay on BT-474 [5], 0; in the assay on DU-4475 [6] it was 4.73; in the assay with MFM-223, 0; in the assay on CAL-85-1, 5.06. Also, the normalised viability with BT-549 [7] (1 nM) is 92%; in the assay on BT-549 [7] (100 nM), 81.8%; in the assay with BT-549 [7] (1000 nM), 103%; in the assay on MDA-MB-453 [8] (0.3 nM), 114%; with MDA-MB-453 [8] (3 nM), 104%; with MDA-MB-453 [8] (10 nM) it was 115%. The normalised viability in the assay on HCC1937 [9] (1 nM) was 121%; in the assay on HCC1937 [9] (100 nM), 104%; in the assay with HCC1937 [9] (1000 nM), 74%; in the assay with CAL-51 [10] (0.3 nM) it was 107%; in the assay on CAL-51 [10] (3 nM), 88.7%; with CAL-51 [10] (10 nM) it was 90.1%. For the same compound, the normalised viability with BT-474 [11] (1 nM) worked out at 123%; in the assay on BT-474 [11] (100 nM) it was 121%; in the assay with BT-474 [11] (1000 nM), 131%; in the assay on DU-4475 [12] (0.3 nM) it was 84.7%; with DU-4475 [12] (3 nM), 56.7%; in the assay on DU-4475 [12] (10 nM), 15.3%.

In the case of `COC(=O)C[C@](O)(CCCC(C)(C)O)C(=O)O[C@@H]1C(OC)=C[C@]23CCCN2CCc2cc4c(cc2[C@H]13)OCO4` [Omacetaxine], the drug sensitivity score with BT-549 [1] was determined as 4.27; in the assay with MDA-MB-453 [2], 0; in the assay on HCC1599, 0; in the assay on MDA-MB-436, 1.54; in the assay on CAL-120, 1.24; in the assay on MCF-10A, 13.3. For the same compound, the drug sensitivity score with HCC1937 [3] turned out to be 0; in the assay with CAL-148, 6.49; in the assay on HDQ-P1, 3.97; in the assay on HCC1143, 0; in the assay with MDA-MB-468 it was 3.61; with MDA-MB-231 it was 7.01. Also, the drug sensitivity score with CAL-51 [4] came out at 0; in the assay on BT-474 [5], 0.916; in the assay with Hs578T it was 17.1; with DU-4475 [6] it was 0; in the assay on MFM-223, 18.3; in the assay on CAL-85-1, 29.

With `O=P(O)(NCCCl)NCCCl` [Ifosfamide mustard], the normalised viability stood at 87.2% with BT-549 [7] (10 nM); 91% in the assay on BT-549 [7] (1000 nM); 107% in the assay with BT-549 [7] (10000 nM); 115% in the assay on MDA-MB-453 [8] (3 nM); 95.5% with MDA-MB-453 [8] (30 nM); 107% in the assay with MDA-MB-453 [8] (100 nM). Further, the normalised viability was determined as 72.7% in the assay with HCC1937 [9] (10 nM); 80.2% in the assay with HCC1937 [9] (1000 nM); 91.5% in the assay on HCC1937 [9] (10000 nM); 106% in the assay on CAL-51 [10] (3 nM); 98.3% in the assay with CAL-51 [10] (30 nM); 105% with CAL-51 [10] (100 nM). The normalised viability in the assay on BT-474 [11] (10 nM) came out at 128%; in the assay on BT-474 [11] (1000 nM), 117%; in the assay with BT-474 [11] (10000 nM) it was 119%; in the assay with DU-4475 [12] (3 nM), 92.4%; in the assay on DU-4475 [12] (30 nM), 99.6%; in the assay on DU-4475 [12] (100 nM), 95.7%.

On to `COc1cc(Nc2ncc(F)c(Nc3ccc4c(n3)NC(=O)C(C)(C)O4)n2)cc(OC)c1OC` [R406], for which the normalised viability in the assay on BT-549 [7] (10 nM) came out at 89.7%; in the assay with BT-549 [7] (1000 nM) it was 77.3%; in the assay on BT-549 [7] (10000 nM) it was 53%; in the assay on MDA-MB-453 [8] (3 nM) it was 119%; in the assay on MDA-MB-453 [8] (30 nM) it was 102%; in the assay on MDA-MB-453 [8] (100 nM), 108%. Besides, the normalised viability came to 105% in the assay on HCC1937 [9] (10 nM); 98.2% with HCC1937 [9] (1000 nM); 86% with HCC1937 [9] (10000 nM); 107% with CAL-51 [10] (3 nM); 107% with CAL-51 [10] (30 nM); 107% with CAL-51 [10] (100 nM). In addition, the normalised viability with BT-474 [11] (10 nM) was 133%; with BT-474 [11] (1000 nM) it was 111%; in the assay with BT-474 [11] (10000 nM) it was 130%; in the assay on DU-4475 [12] (3 nM), 96.4%; in the assay with DU-4475 [12] (30 nM), 85.1%; in the assay with DU-4475 [12] (100 nM), 91.5%.
